How the values were obtained:
neurotensin receptor [1] = target: T1, neurotensin receptor (Mus musculus, UniProt O88319); test: Inhibition of [3H] neurotensin binding in a receptor assay; conditions: [3H] neurotensin receptor binding
T1 construct: from tissue
Procedure: (§1) Thus, the compounds of Formula I were tested for their ability to inhibit [^3 H] neurotensin binding in a receptor assay described by Mazella J., et al., Journal of Biological Chemistry, 263:144-149 (1988) and Kitabgi P., et al., European Journal of Pharmacology, 140:285-293 (1987). Compounds were tested as neurotensin antagonists using the functional assay described by Bunzou J. C., et al., Biochem. J., 264:871-878 (1989) and Turner J., et al., J. Pharm. Exp. Ther., 253:1049-1056 (1990). Thus, compounds were tested for their ability to inhibit neurotensin-induced calcium mobilization in HT29 cells.
(§2) The above test methods are incorporated herein by reference. The data in the table show the neurotensin receptor binding activity and calcium mobilization activity, of representative compounds of Formula I.

neurotensin receptor [2] = target: T2, neurotensin receptor (Homo sapiens, UniProt P30989); test: Inhibition of neurotensin-induced calcium mobilization in HT29 cells; assay type: cell-based
T2 construct: endogenous in cells; host or cells: HT29 cells
Procedure: as §1, §2

T1 sequence (O88319 whole entry): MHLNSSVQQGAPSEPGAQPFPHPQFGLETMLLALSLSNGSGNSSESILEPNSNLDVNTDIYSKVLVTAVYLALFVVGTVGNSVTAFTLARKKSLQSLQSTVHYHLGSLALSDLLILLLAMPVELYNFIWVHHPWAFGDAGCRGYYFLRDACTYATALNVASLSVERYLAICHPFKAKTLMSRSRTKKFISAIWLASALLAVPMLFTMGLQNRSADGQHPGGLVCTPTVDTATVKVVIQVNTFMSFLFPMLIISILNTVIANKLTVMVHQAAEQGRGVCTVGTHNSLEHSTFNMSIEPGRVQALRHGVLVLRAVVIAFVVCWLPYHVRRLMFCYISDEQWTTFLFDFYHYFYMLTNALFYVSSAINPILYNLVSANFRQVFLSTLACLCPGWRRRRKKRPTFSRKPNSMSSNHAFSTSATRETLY
T2 sequence (P30989 whole entry): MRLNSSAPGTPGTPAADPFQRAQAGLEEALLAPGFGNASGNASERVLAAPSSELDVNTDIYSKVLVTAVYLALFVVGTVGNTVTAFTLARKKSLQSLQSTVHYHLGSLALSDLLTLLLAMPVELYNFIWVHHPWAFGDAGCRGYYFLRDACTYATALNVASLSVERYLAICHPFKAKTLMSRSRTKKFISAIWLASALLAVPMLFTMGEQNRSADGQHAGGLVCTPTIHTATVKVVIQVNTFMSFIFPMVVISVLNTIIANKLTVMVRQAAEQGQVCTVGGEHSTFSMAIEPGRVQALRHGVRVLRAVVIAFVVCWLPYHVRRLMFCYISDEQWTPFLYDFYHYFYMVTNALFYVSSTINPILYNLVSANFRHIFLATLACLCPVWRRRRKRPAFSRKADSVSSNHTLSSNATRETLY

SMILES | Ki (neurotensin receptor [1]) [µM] | IC50 (neurotensin receptor [2]) [µM]
Cc1ccc(C(=O)CC(CC(=O)c2ccc(F)cc2)c2cccc(C(=O)O)c2)cc1 (stereo not drawn) [Example 15, 3-[1-[2-(4-Fluorophenyl)-2-oxoethyl]-3-oxo-3-p-tolylpropyl]-benzoic acid] | 0.448 | 
O=C(O)c1cccc(C(CCc2ccc(F)cc2)CC(=O)c2ccc(F)cc2)c1 (stereo not drawn) [Example 22, 3-[3-(4-Fluorophenyl)-1-[2-(4-fluorophenyl)ethyl]-3-oxopropyl]-benzoic acid] | 3.24 | 
O=C(O)c1cccc(C(CCc2ccc(Cl)cc2)CC(=O)c2ccccc2)c1 (stereo not drawn) [Example 19, 3-[1-[2-(4-Chlorophenyl)ethyl]-3-oxo-3-phenylpropyl]-benzoic acid] | 17.7 | 
O=C(CC(CC(=O)c1ccc(Cl)cc1)c1cccc(-c2nnn[nH]2)c1)c1ccc(Cl)cc1 [Example 18, 1,5-Bis-(4-chlorophenyl)-3-[3-(1H-tetrazol-5-yl)phenyl]-pentane-1,5-dione] | 5.9 | 
O=C(O)c1cccc(C(CCc2ccc(F)cc2)CC(=O)c2ccccc2)c1 (stereo not drawn) [Example 21, 3-[1-[2-(4-Fluorophenyl)ethyl]-3-oxo-3-phenylpropyl]-benzoic acid] | 29.5 | 
O=C(O)c1cccc(C(CCc2ccccc2)CC(=O)c2ccc(Cl)cc2)c1 (stereo not drawn) [Example 23, 3-[3-(4-Chlorophenyl)-3-oxo-1-[2-phenylethyl]propyl]-benzoic acid] | 10.4 | 
O=C(O)c1cccc(C(CCc2ccc(Cl)cc2)CC(=O)c2ccc(Cl)cc2)c1 (stereo not drawn) [Example 20, 3-[3-(4-Chlorophenyl)-1-[2-(4-chlorophenyl)ethyl]-3-oxopropyl]-benzoic acid] | 6.74 | 
COc1cccc(OC)c1C(=O)CC(CC(=O)c1ccc(Cl)cc1)c1cccc(C(=O)O)c1 (stereo not drawn) [Example 7, 3-[1-[2-(4-Chlorophenyl)-2-oxoethyl]-3-(2,6-dimethoxyphenyl)-3-oxopropyl]-benzoic acid] |  | 2.2
O=C(CC(CC(=O)c1ccc(F)cc1)c1cccc(-c2nnn[nH]2)c1)c1ccc(F)cc1 [Example 17, 1,5-Bis-(4-fluorophenyl)-3-[3-(1H-tetrazol-5-yl)-phenyl]-pentane-1,5-dione] | 6.32 | 
